Reference: patent publication US9359378B2, “Substituted oxazolo[3,4-a]pyrazines as pharmaceutcals” (BIOLAB SANUS FARMACÊUTICA LTDA., priority 2014, dated 2016)

Experiments:
[1] = tested on: rabbit's corpus cavernosum; assay: Relaxing effect in isolated rabbit's corpus cavernosum strips pre-contracted with phenylephrine (isometric tension); design: species or system New Zealand White rabbits; conditions: for tissue relaxation of phenylephrine-contracted corpus cavernosum: 1 μM compound, contraction induced by 1 μM phenylephrine (PE), FIGS. 8-10; for percentage of relaxation in rabbit's corpus cavernosum: FIGS. 12 and 13
Procedure: For this study, New Zealand White rabbits (2 to 3.5 kg) were used to obtain penile tissue which was excised and transferred to a chilled Krebs solution. For this study, we used cavernosum strips (CC) of the penile tissue of New Zealand White rabbits. The strips were mounted in 10 ml tissue incubation chambers containing Krebs solution at 37° C., pH occurring between 7.3 and 7.5; continuously bubbled with a mixture of 95% oxygen (O2) and 5% carbon dioxide (CO2). An initial tension of 10 mN were applied on the tissues, followed by a 60 minute stabilization period. Changes in tension (isometric force) were obtained using isometric transducers (ADInstruments, Australia) and recorded in a data acquisition system PowerLab 4/30 (Chart Software, version 7.3.7, ADInstruments, MA, USA for BL-230 and version 7.0 ADInstruments, MA for the BL-236). […] Cumulative curve responses to the concentration of BL-230 compounds and tadalafil (0.001 to 10 μM) were obtained in the pre-contracted rabbit corpus cavernosum strips with 1 μM PE.

[2] = target: T1, PDE2A1 (Homo sapiens, UniProt O00408); assay: PDE2A1 enzyme inhibition (HTRF, cAMP substrate); format: biochemical; conditions: human recombinant enzyme (Sf9); FIGS. 14 and 15; test concentration not given
T1 construct: host or cells: Sf9
Excerpt: (§1) The effects of the BL-230 and BL-236 compounds on the activity of the human enzymes PDE2A1, PDE3A, PDE4A1A, PDE4B1, PDE7A, PDE8A1, and PDE10A2 and PDE11A4 were quantified by measuring the production of adenosine 5′-monophosphate (5′AMP) from cyclic adenosine monophosphate (cAMP), with human recombinant enzyme expressed in Sf9 cells and the detection method was by using HTRF®.
(§2) The test compound, the reference compound or water (control) were mixed with the enzyme (the enzymes and their amounts used are described in Table 1) in a buffer containing 44.4 mM Tris-HCl, 5.28 mM MgCl2, 2.64 mM DTT and 0.044% Tween® 20 (pH 7.8). Then, the reaction was initiated by the addition of 40 nM of cAMP substrate and the mixture was incubated for 30 minutes at room temperature. For basal control measurements, the enzyme was omitted from the reaction mixture. The fluorescence acceptor (Dye2 labeled cAMP) and fluorescence donor (anti-cAMP antibody labeled with europium cryptate) were added in the presence of 1 mM IBMX. After 60 minutes, the fluorescence corresponding to the amount of transfer residual cAMP was measured at λex=337 nm, λem=620 nm and λem=665 nm using a microplate reader (RubyStar, BMG). The enzyme activity was determined by the signal division measured at 665 nm, by the measured signal at 620 nm (right). The results were expressed as a inhibition percentage of the control enzyme activity. […]

[3] = target: T2, PDE3A (Homo sapiens, UniProt Q14432); assay: PDE3A enzyme inhibition (HTRF, cAMP substrate); format: biochemical; conditions: human recombinant enzyme (Sf9); FIGS. 14 and 15; test concentration not given
T2 construct: host or cells: Sf9
Excerpt: as §1, §2

[4] = target: T3, PDE4A1A (Homo sapiens, UniProt P27815); assay: PDE4A1A enzyme inhibition (HTRF, cAMP substrate); format: biochemical; conditions: human recombinant enzyme (Sf9); FIGS. 14 and 15; test concentration not given
T3 construct: host or cells: Sf9
Excerpt: as §1, §2

[5] = target: T4, PDE7A (Homo sapiens, UniProt Q13946); assay: PDE7A enzyme inhibition (HTRF, cAMP substrate); format: biochemical; conditions: human recombinant enzyme (Sf9); FIGS. 14 and 15; test concentration not given
T4 construct: host or cells: Sf9
Excerpt: as §1, §2

[6] = target: T5, PDE11A4 (Homo sapiens, UniProt Q9HCR9); assay: PDE11A4 enzyme inhibition (HTRF, cAMP substrate); format: biochemical; conditions: human recombinant enzyme (Sf9); FIGS. 14 and 15; test concentration not given
T5 construct: host or cells: Sf9
Excerpt: as §1, §2

[7] = target: T6, PDE4D2 (Homo sapiens, UniProt Q08499); assay: PDE4D2 enzyme inhibition (HTRF, cAMP substrate); format: biochemical; conditions: human recombinant enzyme (Sf9); FIGS. 14 and 15; test concentration not given
T6 construct: host or cells: Sf9
Procedure: The effects of the BL-230 and BL-236 compounds on the activity of the human PDE4D2 enzyme were quantified by measuring the production from 5′ AMP cAMP using a human recombinant enzyme expressed in Sf9 cells and the method of detection used was the HTRF®.
The test compound, the reference compound or the water (control) were mixed with 0.75 U of PDE4D2 in a saline buffer solution balanced with Hanks (HBSS) (Invitrogen) supplemented, and 1.5 mM MgCl2, 0.1% bovine serum albumin (BSA). Then, the reaction was initiated by addition of 40 nM of cAMP substrate and the mixture is incubated for 15 minutes at 37° C. For basal control measurements, the enzyme was omitted from the reaction mixture. The fluorescence acceptor (Dye2 labeled cAMP) and fluorescence donor (anti-cAMP antibody labeled with europium cryptate) are added in the presence of 1 mM IBMX. After 60 minutes at room temperature, the fluorescence corresponding to the amount of transfer residual cAMP was measured at λex=337 nm, λem=620 nm and λem=665 nm using a microplate reader (Envision, Perkin Elmer). The enzyme activity was determined by the signal division measured at 665 nm, by the measured signal at 620 nm (ratio). The results were expressed as an inhibition percentage of the control enzyme activity. […]

[8] = strips pre-contracted with 1 μM PE

T4 sequence (Q13946 whole entry): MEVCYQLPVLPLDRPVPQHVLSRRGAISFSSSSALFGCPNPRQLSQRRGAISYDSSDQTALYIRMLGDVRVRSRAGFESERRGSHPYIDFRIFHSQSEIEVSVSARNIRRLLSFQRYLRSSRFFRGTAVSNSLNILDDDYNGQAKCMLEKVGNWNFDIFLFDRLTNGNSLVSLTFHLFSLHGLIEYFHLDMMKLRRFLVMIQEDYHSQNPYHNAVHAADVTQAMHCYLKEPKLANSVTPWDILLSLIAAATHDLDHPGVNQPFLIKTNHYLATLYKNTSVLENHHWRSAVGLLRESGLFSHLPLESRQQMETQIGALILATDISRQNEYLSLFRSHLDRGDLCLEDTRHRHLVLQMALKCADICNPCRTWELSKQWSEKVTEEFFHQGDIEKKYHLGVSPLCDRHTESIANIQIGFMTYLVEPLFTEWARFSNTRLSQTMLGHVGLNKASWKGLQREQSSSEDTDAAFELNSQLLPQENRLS
T3 sequence (P27815 1-647 isoform P27815-4): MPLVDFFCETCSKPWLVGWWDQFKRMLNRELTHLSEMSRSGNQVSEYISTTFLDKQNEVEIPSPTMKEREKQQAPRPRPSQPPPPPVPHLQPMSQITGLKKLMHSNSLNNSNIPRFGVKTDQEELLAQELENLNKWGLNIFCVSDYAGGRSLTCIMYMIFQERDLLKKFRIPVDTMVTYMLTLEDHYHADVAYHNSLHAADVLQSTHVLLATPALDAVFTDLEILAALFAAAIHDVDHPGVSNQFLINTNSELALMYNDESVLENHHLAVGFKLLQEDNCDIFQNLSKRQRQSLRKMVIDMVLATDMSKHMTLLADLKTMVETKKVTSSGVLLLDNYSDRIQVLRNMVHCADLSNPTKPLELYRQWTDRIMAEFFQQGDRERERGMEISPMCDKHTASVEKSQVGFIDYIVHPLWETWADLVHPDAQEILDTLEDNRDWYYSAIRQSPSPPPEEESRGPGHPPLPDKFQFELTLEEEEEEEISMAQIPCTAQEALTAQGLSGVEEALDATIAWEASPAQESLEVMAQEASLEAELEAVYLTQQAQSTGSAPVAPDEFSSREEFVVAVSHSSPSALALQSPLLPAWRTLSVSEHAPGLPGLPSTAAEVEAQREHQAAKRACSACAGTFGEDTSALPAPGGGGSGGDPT
T5 sequence (Q9HCR9 whole entry): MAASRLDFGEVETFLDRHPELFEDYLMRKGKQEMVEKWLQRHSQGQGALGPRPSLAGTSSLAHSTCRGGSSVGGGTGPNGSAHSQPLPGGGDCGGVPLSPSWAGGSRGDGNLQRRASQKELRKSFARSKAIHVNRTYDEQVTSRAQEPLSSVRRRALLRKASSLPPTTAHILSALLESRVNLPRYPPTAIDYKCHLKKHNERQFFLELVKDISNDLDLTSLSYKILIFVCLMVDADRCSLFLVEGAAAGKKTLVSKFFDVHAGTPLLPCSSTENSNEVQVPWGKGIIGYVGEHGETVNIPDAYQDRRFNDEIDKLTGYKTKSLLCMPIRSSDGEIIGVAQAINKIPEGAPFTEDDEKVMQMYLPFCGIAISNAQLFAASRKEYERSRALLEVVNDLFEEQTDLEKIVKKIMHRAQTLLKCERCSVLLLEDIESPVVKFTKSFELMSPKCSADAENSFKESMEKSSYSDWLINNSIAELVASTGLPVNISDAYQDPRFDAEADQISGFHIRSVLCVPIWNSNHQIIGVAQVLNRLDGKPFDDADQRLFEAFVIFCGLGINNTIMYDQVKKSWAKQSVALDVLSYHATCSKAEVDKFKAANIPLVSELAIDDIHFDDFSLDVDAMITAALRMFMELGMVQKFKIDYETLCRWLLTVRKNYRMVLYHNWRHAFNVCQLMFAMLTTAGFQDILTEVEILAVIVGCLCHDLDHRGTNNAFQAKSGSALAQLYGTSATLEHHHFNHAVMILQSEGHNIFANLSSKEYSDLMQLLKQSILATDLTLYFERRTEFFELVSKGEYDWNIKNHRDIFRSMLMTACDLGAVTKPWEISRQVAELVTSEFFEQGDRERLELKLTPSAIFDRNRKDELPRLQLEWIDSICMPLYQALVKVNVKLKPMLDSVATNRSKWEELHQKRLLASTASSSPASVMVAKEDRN
T6 sequence (Q08499 303-809 limits assumed): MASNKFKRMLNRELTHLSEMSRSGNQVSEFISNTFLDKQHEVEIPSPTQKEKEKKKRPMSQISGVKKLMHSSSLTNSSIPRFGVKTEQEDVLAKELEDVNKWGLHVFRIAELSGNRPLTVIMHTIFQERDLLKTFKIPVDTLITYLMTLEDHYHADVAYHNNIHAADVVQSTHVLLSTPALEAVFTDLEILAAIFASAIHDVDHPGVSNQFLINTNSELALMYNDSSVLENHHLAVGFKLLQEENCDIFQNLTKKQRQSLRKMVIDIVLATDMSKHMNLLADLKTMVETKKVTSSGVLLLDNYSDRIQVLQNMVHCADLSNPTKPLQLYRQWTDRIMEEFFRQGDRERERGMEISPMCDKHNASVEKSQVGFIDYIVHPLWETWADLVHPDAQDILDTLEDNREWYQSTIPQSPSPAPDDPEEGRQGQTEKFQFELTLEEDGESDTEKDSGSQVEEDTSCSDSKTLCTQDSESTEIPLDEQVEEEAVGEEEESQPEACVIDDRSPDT
T2 sequence (Q14432 whole entry): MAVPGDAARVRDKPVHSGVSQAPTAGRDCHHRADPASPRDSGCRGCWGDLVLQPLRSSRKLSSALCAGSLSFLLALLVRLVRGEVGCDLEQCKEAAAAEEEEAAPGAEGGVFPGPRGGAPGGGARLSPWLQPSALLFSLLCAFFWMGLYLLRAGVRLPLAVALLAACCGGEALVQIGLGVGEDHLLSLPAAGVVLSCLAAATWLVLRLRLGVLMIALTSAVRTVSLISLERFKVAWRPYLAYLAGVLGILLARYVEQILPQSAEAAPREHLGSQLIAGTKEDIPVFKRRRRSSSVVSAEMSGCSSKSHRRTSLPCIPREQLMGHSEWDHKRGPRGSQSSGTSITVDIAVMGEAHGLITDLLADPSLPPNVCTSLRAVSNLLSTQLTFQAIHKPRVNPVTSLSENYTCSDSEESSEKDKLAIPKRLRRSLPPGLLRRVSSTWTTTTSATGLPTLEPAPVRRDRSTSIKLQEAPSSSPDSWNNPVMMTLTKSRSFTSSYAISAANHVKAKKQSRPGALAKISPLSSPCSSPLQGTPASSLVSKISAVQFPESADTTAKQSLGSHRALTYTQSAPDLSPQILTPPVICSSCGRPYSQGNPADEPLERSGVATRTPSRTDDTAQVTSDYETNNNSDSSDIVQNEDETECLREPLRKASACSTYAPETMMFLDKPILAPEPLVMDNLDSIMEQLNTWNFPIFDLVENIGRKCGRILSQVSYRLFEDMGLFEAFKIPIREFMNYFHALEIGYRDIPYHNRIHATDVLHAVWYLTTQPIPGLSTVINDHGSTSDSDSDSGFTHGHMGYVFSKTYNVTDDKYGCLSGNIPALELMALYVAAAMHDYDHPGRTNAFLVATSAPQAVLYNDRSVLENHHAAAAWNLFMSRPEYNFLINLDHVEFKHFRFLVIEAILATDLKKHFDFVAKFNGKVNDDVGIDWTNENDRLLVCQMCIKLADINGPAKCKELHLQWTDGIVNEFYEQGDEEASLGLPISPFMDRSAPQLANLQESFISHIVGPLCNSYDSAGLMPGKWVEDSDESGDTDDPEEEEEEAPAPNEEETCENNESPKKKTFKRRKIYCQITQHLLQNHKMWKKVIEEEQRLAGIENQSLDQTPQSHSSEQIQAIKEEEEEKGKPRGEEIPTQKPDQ
T1 sequence (O00408 1-920 isoform O00408-2): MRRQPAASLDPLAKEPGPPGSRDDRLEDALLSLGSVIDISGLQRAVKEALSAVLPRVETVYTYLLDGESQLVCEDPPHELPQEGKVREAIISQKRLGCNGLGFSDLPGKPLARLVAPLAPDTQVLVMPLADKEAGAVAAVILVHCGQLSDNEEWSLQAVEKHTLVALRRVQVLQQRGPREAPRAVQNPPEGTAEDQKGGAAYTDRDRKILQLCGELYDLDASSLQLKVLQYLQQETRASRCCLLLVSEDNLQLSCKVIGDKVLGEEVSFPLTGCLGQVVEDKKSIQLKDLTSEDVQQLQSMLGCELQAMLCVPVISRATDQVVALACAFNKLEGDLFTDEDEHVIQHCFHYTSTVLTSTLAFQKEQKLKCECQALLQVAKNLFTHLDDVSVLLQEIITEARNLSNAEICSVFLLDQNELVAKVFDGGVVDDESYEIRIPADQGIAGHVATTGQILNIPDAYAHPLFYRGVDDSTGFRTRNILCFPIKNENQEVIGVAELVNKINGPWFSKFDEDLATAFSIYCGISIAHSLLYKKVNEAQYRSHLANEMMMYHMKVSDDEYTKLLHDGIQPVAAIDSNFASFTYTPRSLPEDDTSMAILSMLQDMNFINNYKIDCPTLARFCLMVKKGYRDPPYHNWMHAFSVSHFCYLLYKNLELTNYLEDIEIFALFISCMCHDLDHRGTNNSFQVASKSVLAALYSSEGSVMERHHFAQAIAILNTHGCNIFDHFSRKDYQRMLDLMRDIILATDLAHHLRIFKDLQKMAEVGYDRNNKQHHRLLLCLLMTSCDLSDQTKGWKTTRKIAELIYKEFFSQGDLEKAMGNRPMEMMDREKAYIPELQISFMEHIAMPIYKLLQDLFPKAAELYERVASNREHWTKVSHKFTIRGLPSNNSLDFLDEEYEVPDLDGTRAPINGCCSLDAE

inhibition of PDE2A1 enzyme activity [2] | inhibition of PDE3A enzyme activity [3] | inhibition of PDE4A1A enzyme activity [4] | inhibition of PDE7A enzyme activity [5] | inhibition of PDE11A4 enzyme activity [6] [%] | inhibition of PDE4D2 enzyme activity [7] | melting point [°C] | SMILES | tissue relaxation of phenylephrine-contracted corpus cavernosum [1] | cumulative concentration-response relaxation ([1]; 0.001 to 10 μM, strips pre-contracted with 1 μM PE, FIG. 11) | percentage of relaxation in rabbit's corpus cavernosum [1, 8] [%]
did not inhibit | did not inhibit | did not inhibit | did not inhibit | 75 | 55% | 254 to 258 | O=C1C2=C(c3c[nH]c4ccccc34)OC(c3ccc4c(c3)OCO4)N2C(=O)CN1CCO (stereo not shown) [BL-230, 3-(benzo[d][1,3]dioxol-5yl)-7-(2-hydroxyethyl)-1-(1H-indol-3-yl)-6,7-dihydro-3H-oxazolo[3,4-a]pyrazine-5,8-dione] | produced tissue relaxation shape similar to that of tadalafil | dose-dependent relaxation similar to that observed for tadalafil | 78.47
did not inhibit | did not inhibit | did not inhibit | did not inhibit | 80 | no inhibitory effect | 235 to 239 | C[C@@H](CO)N1CC(=O)N2C(=C(c3c[nH]c4ccccc34)OC2c2ccc3c(c2)OCO3)C1=O (stereo partly drawn) [BL-236, 3-(benzo[d][1,3]dioxol-5yl)-7-((S)1-hydroxypropan-2yl)-1-(1H-indol-3-yl)-6,7-dihydro-3H-oxazolo[3,4-a]pyrazine-5,8-dione] | produced tissue relaxation shape similar to that of tadalafil | – | 93.05
